Results: ChEMBL document CHEMBL3046098, “Effect of tropine derivatives, antimuscarinic agents, on the growth of Bombyx mori larvae” (1998)
Calls of active or inactive are those of the source. The rule behind the calls is not given here.

Columns and labels:
Bombyx mori [1] = experiment: Insecticidal activity against Bombyx mori Shunrei x Shogetu fourth-instar larvae assessed as effect on larval growth at 100 ppm administered in diet relative to untreated control; assay type: functional, organism-based
Bombyx mori [2] = experiment: Effect on feeding in Bombyx mori Shunrei x Shogetu fourth-instar larvae assessed as change in quantity of excrement at 10 to 30 ppm administered in diet relative to untreated control; assay type: functional, organism-based
Bombyx mori [3] = experiment: Insecticidal activity against Bombyx mori Shunrei x Shogetu fourth-instar larva assessed as effect on larval molting at 160 ug/larvae upon topial application; assay type: functional, organism-based
Bombyx mori [4] = experiment: Insecticidal activity against Bombyx mori Shunrei x Shogetu fourth-instar larva assessed as effect on larval growth at 160 ug/larvae upon topial application; assay type: functional, organism-based
Bombyx mori [5] = experiment: Insecticidal activity against Bombyx mori Shunrei x Shogetu fourth-instar larvae assessed as incidence of prolongation of 4th ecdysis at 30 ppm administered in diet relative to untreated control; assay type: functional
Bombyx mori [6] = experiment: Insecticidal activity against Bombyx mori Shunrei x Shogetu fourth-instar larvae assessed as induction of delay in 4th ecdysis at 100 ug/larva applied daily through topical route (reference value: 4.3 +/- 0.48 days); assay type: functional
Bombyx mori [7] = experiment: Insecticidal activity against Bombyx mori Shunrei x Shogetu fourth-instar larvae assessed as induction of delay in 4th ecdysis at 10 to 30 ppm administered in diet relative to untreated control; assay type: functional

| Compound | Activity (Bombyx mori [1]) | Activity (Bombyx mori [2]) | Activity (Bombyx mori [3]) | Activity (Bombyx mori [4]) | Activity (Bombyx mori [5]) | Time (Bombyx mori [6]) | Time (Bombyx mori [7]) |
| --- | --- | --- | --- | --- | --- | --- | --- |
| O=C(O)CC(c1ccccc1)c1ccccc1 | inactive |  |  |  |  |  |  |
| CN1C2CC[C@@H]1C[C@@H](OC(=O)C(C)(c1ccccc1)c1ccccc1)C2 (single isomer, unassigned) |  | inactive | inactive | inactive | 40% | 5.3 days |  |
| CN1C2CC[C@@H]1C[C@@H](OC(=O)C(C)(C)C)C2 (single isomer, unassigned) |  |  | inactive | inactive |  |  |  |
| CN1C2CC[C@@H]1C[C@@H](OC(=O)C(c1ccccc1)c1ccccc1)C2 (single isomer, unassigned) |  |  | inactive | inactive |  |  |  |
| CN1C2CC[C@@H]1C[C@@H](OC(=O)CC(c1ccccc1)c1ccccc1)C2 (single isomer, unassigned) | inactive |  | inactive | inactive |  |  |  |
| CN1C2CC[C@@H]1C[C@@H](OC(=O)c1ccc(Cl)cc1Cl)C2 (single isomer, unassigned) |  |  | inactive | inactive |  |  |  |
| CN1C2CC[C@@H]1C[C@@H](OC(=O)c1ccc3ccccc3c1)C2 (single isomer, unassigned) |  |  | inactive | inactive |  |  |  |
| CN1[C@@H]2CC[C@H]1C[C@@H](OC(=O)C(CO)c1ccccc1)C2 (stereo not given in full) [ATROPINE] |  | inactive |  |  |  | 4.7 days | 1 days |
